In patent EP4238973A1, “SUBSTITUTED 1,2,4-THIADIAZOLYL ISONICOTINAMIDES, SALTS OR N-OXIDES THEREOF AND THEIR USE AS HERBICIDALLY ACTIVE SUBSTANCES” (Bayer AG, priority 2022, dated 2023):

Assays:
Format in all cases: in vivo
Matricaria inodora [1] = assay: Herbicidal pre-emergence action; settings: 1280 g/ha, visual grading after ca. 3 weeks vs untreated controls
Source text: (§1) Seeds of mono- and dicotyledonous weed plants were sown in plastic pots (double sowings with one species of mono- and one species of dicotyledonous weed plants per pot), in sandy loam, and covered with soil. The compounds according to the invention, formulated in the form of wettable powders (WP) or as emulsifiable concentrates (EC), were applied to the surface of the covering soil as an aqueous suspension or as an emulsion, with the addition of 0.5% of an additive, at an application rate of 600 litres of water per hectare (converted). Following treatment, the pots were placed in a greenhouse and kept under optimum growth conditions for the test plants. The visual grading of the damage to the test plants is carried out after ca. 3 weeks in comparison to untreated controls (herbicidal effect in percent (%): 100% effect = plants have died, 0% effect = as control plants). Seeds of mono- and dicotyledonous weed plants were sown in plastic pots (double sowings with one species of mono- and one species of dicotyledonous weed plants per pot), in sandy loam, and covered with soil. The compounds according to the invention, formulated in the form of wettable powders (WP) or as emulsifiable concentrates (EC), were applied to the surface of the covering soil as an aqueous suspension or as an emulsion, with the addition of 0.5% of an additive, at an application rate of 600 litres of water per hectare (converted). Following treatment, the pots were placed in a greenhouse and kept under optimum growth conditions for the test plants. The visual grading of the damage to the test plants is carried out after ca. 3 weeks in comparison to untreated controls (herbicidal effect in percent (%): 100% effect = plants have died, 0% effect = as control plants).

Stellaria media [2] = assay: Herbicidal pre-emergence action; settings: visual grading after ca. 3 weeks vs untreated controls
Source text: as §1

Poa annua [3] = assay: Herbicidal pre-emergence action; settings: visual grading after ca. 3 weeks vs untreated controls
Source text: as §1

Amaranthus retroflexus [4] = assay: Herbicidal pre-emergence action; settings: 1280 g/ha, visual grading after ca. 3 weeks vs untreated controls
Source text: as §1

Kochia scoparia [5] = assay: Herbicidal pre-emergence action; settings: 1280 g/ha, visual grading after ca. 3 weeks vs untreated controls
Source text: as §1

Setaria viridis [6] = assay: Herbicidal pre-emergence action; settings: 1280 g/ha, visual grading after ca. 3 weeks vs untreated controls
Source text: as §1

Lolium rigidum [7] = assay: Herbicidal pre-emergence action; settings: 1280 g/ha, visual grading after ca. 3 weeks vs untreated controls
Source text: as §1

Digitaria sanguinalis [8] = assay: Herbicidal pre-emergence action; settings: 1280 g/ha, visual grading after ca. 3 weeks vs untreated controls
Source text: as §1

Veronica persica [9] = assay: Herbicidal pre-emergence action; settings: 1280 g/ha, visual grading after ca. 3 weeks vs untreated controls
Source text: as §1

Matricaria inodora [10] = assay: Herbicidal post-emergence action; settings: 1280 g/ha, visual assessment after ca. 3 weeks vs untreated controls
Source text: (§2) Seeds of mono- and dicotyledonous weed plants were sown in plastic pots (double sowings with one species of mono- and one species of dicotyledonous weed plants per pot), in sandy loam, covered with soil and grown under controlled growth conditions. 2 to 3 weeks after sowing, the test plants were sprayed in the single-leaf stage. The compounds according to the invention, formulated in the form of wettable powders (WP) or as emulsifiable concentrates (EC), were sprayed onto the green plant parts as an aqueous suspension or as an emulsion, with the addition of 0.5% of an additive, at an application rate of 600 litres of water per hectare (converted). The test plants were placed in the greenhouse for ca. 3 weeks under optimum growth conditions, and then the effect of the preparations is assessed visually in comparison with untreated controls (herbicidal effect in percent (%): 100% effect = plants have died, 0% effect = as control plants).
as §2, with “(EC), are” for “(EC), were”, “controls (herbicidaleffectinpercent(%):100%effect=plantshavedied,0%effect=ascontrolplants). [formula]” for “controls (herbicidal effect in percent (%): 100% effect = plants have died, 0% effect = as control plants).”

Stellaria media [11] = assay: Herbicidal post-emergence action; settings: visual assessment after ca. 3 weeks vs untreated controls
Source text: as §2
as §2, with “(EC), are” for “(EC), were”, “controls (herbicidaleffectinpercent(%):100%effect=plantshavedied,0%effect=ascontrolplants). [formula]” for “controls (herbicidal effect in percent (%): 100% effect = plants have died, 0% effect = as control plants).”

Poa annua [12] = assay: Herbicidal post-emergence action; settings: visual assessment after ca. 3 weeks vs untreated controls
Source text: as §2
as §2, with “(EC), are” for “(EC), were”, “controls (herbicidaleffectinpercent(%):100%effect=plantshavedied,0%effect=ascontrolplants). [formula]” for “controls (herbicidal effect in percent (%): 100% effect = plants have died, 0% effect = as control plants).”

Amaranthus retroflexus [13] = assay: Herbicidal post-emergence action; settings: 1280 g/ha, visual assessment after ca. 3 weeks vs untreated controls
Source text: as §2
as §2, with “(EC), are” for “(EC), were”, “controls (herbicidaleffectinpercent(%):100%effect=plantshavedied,0%effect=ascontrolplants). [formula]” for “controls (herbicidal effect in percent (%): 100% effect = plants have died, 0% effect = as control plants).”

Kochia scoparia [14] = assay: Herbicidal post-emergence action; settings: 1280 g/ha, visual assessment after ca. 3 weeks vs untreated controls
Source text: as §2
as §2, with “(EC), are” for “(EC), were”, “controls (herbicidaleffectinpercent(%):100%effect=plantshavedied,0%effect=ascontrolplants). [formula]” for “controls (herbicidal effect in percent (%): 100% effect = plants have died, 0% effect = as control plants).”

Setaria viridis [15] = assay: Herbicidal post-emergence action; settings: visual assessment after ca. 3 weeks vs untreated controls
Source text: as §2
as §2, with “(EC), are” for “(EC), were”, “controls (herbicidaleffectinpercent(%):100%effect=plantshavedied,0%effect=ascontrolplants). [formula]” for “controls (herbicidal effect in percent (%): 100% effect = plants have died, 0% effect = as control plants).”

Lolium rigidum [16] = assay: Herbicidal post-emergence action; settings: 1280 g/ha, visual assessment after ca. 3 weeks vs untreated controls
Source text: as §2
as §2, with “(EC), are” for “(EC), were”, “controls (herbicidaleffectinpercent(%):100%effect=plantshavedied,0%effect=ascontrolplants). [formula]” for “controls (herbicidal effect in percent (%): 100% effect = plants have died, 0% effect = as control plants).”

Alopecurus myosuroides = assay: Herbicidal post-emergence action; settings: 1280 g/ha, visual assessment after ca. 3 weeks vs untreated controls
Source text: as §2
as §2, with “(EC), are” for “(EC), were”, “controls (herbicidaleffectinpercent(%):100%effect=plantshavedied,0%effect=ascontrolplants). [formula]” for “controls (herbicidal effect in percent (%): 100% effect = plants have died, 0% effect = as control plants).”

Digitaria sanguinalis [17] = assay: Herbicidal post-emergence action; settings: visual assessment after ca. 3 weeks vs untreated controls
Source text: as §2
as §2, with “(EC), are” for “(EC), were”, “controls (herbicidaleffectinpercent(%):100%effect=plantshavedied,0%effect=ascontrolplants). [formula]” for “controls (herbicidal effect in percent (%): 100% effect = plants have died, 0% effect = as control plants).”

Veronica persica [18] = assay: Herbicidal post-emergence action; settings: visual assessment after ca. 3 weeks vs untreated controls
Source text: as §2
as §2, with “(EC), are” for “(EC), were”, “controls (herbicidaleffectinpercent(%):100%effect=plantshavedied,0%effect=ascontrolplants). [formula]” for “controls (herbicidal effect in percent (%): 100% effect = plants have died, 0% effect = as control plants).”

Structure (SMILES): O=C(Nc1ncns1)c1ccncc1I [Example 1-004]
- herbicidal effect in percent (%), MATIN (Matricaria inodora [1]): 90%
- herbicidal effect in percent (%), STEME (Stellaria media [2]; 320 g/ha): 90%
- herbicidal effect in percent (%), STEME (Stellaria media [2]; 1280 g/ha): 90%
- herbicidal effect in percent (%), POAAN (Poa annua [3]; 320 g/ha): 90%
- herbicidal effect in percent (%), POAAN (Poa annua [3]; 1280 g/ha): 90%
- herbicidal effect in percent (%), AMARE (Amaranthus retroflexus [4]): 90%
- herbicidal effect in percent (%), KCHSC (Kochia scoparia [5]): 90%
- herbicidal effect in percent (%), SETVI (Setaria viridis [6]): 90%
- herbicidal effect in percent (%), LOLRI (Lolium rigidum [7]): 100%
- herbicidal effect in percent (%), DIGSA (Digitaria sanguinalis [8]): 90%
- herbicidal effect in percent (%), VERPE (Veronica persica [9]): 90%
- herbicidal effect in percent (%), MATIN (Matricaria inodora [10]): 100%
- herbicidal effect in percent (%), STEME (Stellaria media [11]; 320 g/ha): 100%
- herbicidal effect in percent (%), STEME (Stellaria media [11]; 1280 g/ha): 100%
- herbicidal effect in percent (%), POAAN (Poa annua [12]; 320 g/ha): 100%
- herbicidal effect in percent (%), POAAN (Poa annua [12]; 1280 g/ha): 100%
- herbicidal effect in percent (%), AMARE (Amaranthus retroflexus [13]): 100%
- herbicidal effect in percent (%), KCHSC (Kochia scoparia [14]): 90%
- herbicidal effect in percent (%), SETVI (Setaria viridis [15]; 320 g/ha): 90%
- herbicidal effect in percent (%), SETVI (Setaria viridis [15]; 1280 g/ha): 90%
- herbicidal effect in percent (%), LOLRI (Lolium rigidum [16]): 100%
- herbicidal effect in percent (%), ALOMY (Alopecurus myosuroides): 100%
- herbicidal effect in percent (%), DIGSA (Digitaria sanguinalis [17]; 320 g/ha): 90%
- herbicidal effect in percent (%), DIGSA (Digitaria sanguinalis [17]; 1280 g/ha): 100%
- herbicidal effect in percent (%), VERPE (Veronica persica [18]; 320 g/ha): 100%
- herbicidal effect in percent (%), VERPE (Veronica persica [18]; 1280 g/ha): 100%
